Patent US4771041A, “Method for combating virus infection” (priority 1976, dated 1988)

Experiments:
[1] = target: T1, reverse transcriptase from VV (Maedi visna virus, UniProt P03370); assay: Cell-free reverse transcriptase inhibition, VV; format: biochemical; details: template/primer (rA)n.(dT)10, read-out: Percent inhibition
T1 construct: Reverse transcriptase from various retroviruses have been tested in cell-free assays; made in house
Protocol: Reverse transcriptase from various retroviruses have been tested in cell-free assays for inhibition by phosphonoformic acid and phosphonoacetic acid. The assay conditions have been described by Collaborative Research, Inc, 1365 Main Street, Waltham, Mass., USA "Assay kit for mammalian viral reverse transcriptase". BLV and VV were prepared in this laboratory and all other viruses and viral enzyme were obtained from Dr. K Nilsson, Department of Pathology, University of Uppsala and from Boehringer Mannheim, Germany. Phosphonoformic acid (PFA) and phosphonoacetic acid (PAA) were added at pH 7.2 to the reaction mixtures at the start of the reaction.
Rauscher murine leukemia virus; RMuLV, visna virus; VV, avian myeloblastosis virus; AMV, bovine leukemia virus; BLV, baboon endogenous virus; BaEV, simian sarcoma virus; SSV.

HTLV-III = HTLV-III replication in H9 cells; format: cell-based; details: Human immunodeficiency virus 1, 144 h
Protocol: H9 cells constitute a human cell line that can be chronically infected with HTLV-III virus. (Science 1984; 224: 497-500). H9 cells were treated with polybrene (2 μg/ml) for 30 min. at 37° C., washed free of polybrene and infected with 2×10^8 HTLV-III virus particles per 4×10^5 H9 cells. […] The cultures were analyzed for HTLV-III reverse transcriptase activity as described above.

T1 sequence (P03370 541-1111): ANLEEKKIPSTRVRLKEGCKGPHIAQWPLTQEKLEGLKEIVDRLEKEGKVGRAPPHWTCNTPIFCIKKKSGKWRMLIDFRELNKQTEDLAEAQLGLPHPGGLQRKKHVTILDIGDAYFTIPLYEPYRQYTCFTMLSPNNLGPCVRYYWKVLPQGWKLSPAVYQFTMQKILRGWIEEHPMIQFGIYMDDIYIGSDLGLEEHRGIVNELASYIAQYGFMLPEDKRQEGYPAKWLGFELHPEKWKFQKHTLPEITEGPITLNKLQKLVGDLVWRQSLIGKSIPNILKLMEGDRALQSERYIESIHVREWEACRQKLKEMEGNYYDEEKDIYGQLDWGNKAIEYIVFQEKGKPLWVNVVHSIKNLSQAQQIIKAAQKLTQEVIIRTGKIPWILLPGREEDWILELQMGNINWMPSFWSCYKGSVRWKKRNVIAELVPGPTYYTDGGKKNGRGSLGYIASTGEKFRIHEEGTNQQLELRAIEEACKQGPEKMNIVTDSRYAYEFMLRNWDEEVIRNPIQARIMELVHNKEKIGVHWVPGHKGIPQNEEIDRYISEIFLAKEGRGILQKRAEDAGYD

`O=C(O)P(=O)(O)O` [phosphonoformic acid] was tested, and the inhibition at 100 µM ([1]; 100 μM) was 95%, the inhibition at 500 µM ([1]; 500 μM) was 99% and the inhibition at 300 µM (HTLV-III; 300 μM, after six days of incubation) was > 95%. For the same molecule, the IC50 (HTLV-III; after 6 days of incubation, read-out: concentration giving 50% inhibition of HTLV-III replication) was 50 µM.
